Laboratory results as given in US20120004235A1, “METHODS TO TREAT CANCER” (Rutgers, The State University of New Jersey, priority 2009, published 2012).
Values joined by “and” are separate entries in the source; they are usually repeats but may differ in a detail not shown here. Equal values may be shown once. Where a name gives a salt, the structure may show the parent alone. Read-outs that look alike come from different tables or passages of the source.

Assays:
[1] = system: Human H460 Non-Small Cell Lung Carcinoma Tumor Xenograft Model; experiment: Test D xenograft, Compound 2 free base; format: in vivo, nu/nu mice; details: qod × 3
Experimental: (§1) The anti-tumor activity of Compound 2 (free base) was evaluated against a variety of human tumor xenograft models. A summary of the studies, including tumor type, dosing and administration, growth inhibition, and major findings is presented below.

[2] = system: NCI-H460 human non-small cell lung carcinoma xenograft; experiment: Compound 2 citrate salt vs. NCI-H460 xenograft model (pemetrexed, topotecan, cisplatin controls); details: for mean tumor volume of the animals not at endpoint: 3 animals
[3] = system: NCI-H460 human non-small cell lung carcinoma xenograft; experiment: Comparison dose schedule study in the NCI-H460 xenograft model; format: in vivo, nude (nu/nu) mice
From the text: Irinotecan served as the positive control.

[4] = system: MDA-MB-231 human breast tumor xenograft; details: for animals not yet reached the study endpoint of 1500 mm^3: Day 90
[5] = system: HT-29 human colon tumor xenograft; experiment: Compound 2 citrate salt vs. HT-29 human colon tumor model
[6] = system: NCI-H460 human non-small cell lung carcinoma xenograft; experiment: Compound 2 citrate salt vs. NCI-H460 xenograft model (docetaxel control)
[7] = system: HCT-116 human colon tumor xenograft; experiment: Compound 2 citrate salt vs. HCT-116 human colon tumor xenograft model (IV)
[8] = system: human HCT-116 colon ca, HT-29 colon ca and NCI-H460 NSCLC cells; experiment: 72 hour exposure concentration response in tumor cells (Example 22); format: cell-based; details: range over HCT-116, HT-29 and NCI-H460 cells and the three compounds
Experimental: The in vitro and in vivo activity of compound 2 and two of its metabolites (compound 5 and compound 6) were explored and compared with the activity of camptothecin Top1 inhibitors. […] In human HCT-116 colon ca, HT-29 colon ca and NCI-H460 NSCLC cells the concentration response for compound 2, compound 5 and compound 6 were the same. […] Compound 2 was administered intravenously on a QODx3 schedule for 2 cycles.

[9] = system: Human HCT-116 Colon Tumor Xenograft Model; experiment: Test D xenograft, Compound 2 and metabolites; details: qod × 3 for 2 cycles
[10] = system: Human SK-MEL-3 Melanoma Tumor Xenograft Model; experiment: Test D xenograft, Compound 2 free base; format: in vivo, nu/nu mice; details: 90 mg/kg/day IP, qd × 5
Experimental: as §1

[11] = system: Human LOX-IMVI Melanoma Tumor Xenograft Model; experiment: Test D xenograft, Compound 2 free base; details: 90 mg/kg/day IP, qd × 5
[12] = system: Human NCI-H292 Lung Tumor Xenograft Model; experiment: Test D xenograft, Compound 2 free base; details: qod × 3
[13] = system: Human H1299 Lung Tumor Xenograft Model; experiment: Test D xenograft, Compound 2 free base; details: qod × 3
[14] = system: Human MDA-MB-231 Breast Tumor Xenograft Model; experiment: Test D xenograft, Compound 2 free base; details: qod × 3
[15] = system: Human DLD-1 Colon Tumor Xenograft Model; experiment: Test D xenograft, Compound 2 free base; format: in vivo, nu/nu mice; details: 60 mg/kg/day IV
[16] = system: Human HCT-15 Colon Tumor Xenograft Model; experiment: Test D xenograft, Compound 2 free base; format: in vivo, nu/nu mice; details: 60 mg/kg/day IV, q4d×3
[17] = system: Human 786-0 Renal Cell Tumor Xenograft Model; experiment: Test D xenograft, Compound 2 free base; format: in vivo, nu/nu mice; details: 60 mg/kg/day IV, q4d×3
[18] = system: HCT-116 human colon tumor xenograft; experiment: Compound 2 after oral administration vs. the HCT-116 xenograft model; details: 60 mg/kg/day IP, q4d×3
[19] = 2.04 mg/kg/day IP, qod×3 weekly for 2 cycles
[20] = 2.72 mg/kg/day IP, qod×3 weekly for 2 cycles
[21] = 4.08 mg/kg/day IP, qod×3 weekly for 2 cycles
[22] = all dosages (0.68, 1.36, 2.72 mg/kg IP, qod×3 weekly for 2 cycles)
[23] = 1.36 mg/kg/day IV, qod×3 weekly for 2 cycles
[24] = 2.72 mg/kg/day IV, qod×3 weekly for 2 cycles
[25] = 2.72 mg/kg/day IP, qod×3 weekly for 2 cycles, Day 53
[26] = 60 mg/kg/day IP, qod×3 weekly for 2 cycles

N.N.[Cl][Pt][Cl] [Cisplatin]
Increase in Life Span (ILS) ([1]; 3.3 mg/kg/day IP): 1.4x | Tumor Growth Delay T-C ([1]; 3.3 mg/kg/day IP): 11 days | Tumor Growth Inhibition T/C (tumor volume) ([1]; 3.3 mg/kg/day IP): 44.5% | antitumor activity ([2]; 0.75 and 1.5 mg/kg/day IP, qd×5): only active at the high dose | antitumor activity (TGI and TGD evaluation points) ([2]; high dose (1.5 mg/kg/day IP, qd×5)): low activity at both evaluation points

CNCCn1c(=O)c2cc(OC)c(OC)cc2c2cnc3cc4c(cc3c21)OCO4 [Compound 2 citrate salt, 8,9-dimethoxy-2,3-methylenedioxy-5-[2-(N-methylamino)ethyl]-5H-dibenzo[c,h]1,6-naphthyridin-6-one]
maximum weight loss ([3]; 4.90 mg/kg/day IP, q4d×5, on Day 34): 24.2% | TGD [4, 19]: 52 days | animals not yet reached the study endpoint of 1500 mm^3 [4, 19]: 2 of 8 | TGD [4, 20]: > 58 days | animals not yet reached the study endpoint of 1500 mm^3 [4, 20]: 4 of 8 | ILS ([4]; 3.27 mg/kg/day IP, qd×5): > 2.0 fold | TGD (T-C) ([4]; 3.27 mg/kg/day IP, qd×5): 42 days | TGI (T/C) ([4]; 3.27 mg/kg/day IP, qd×5): 9.5% | maximum weight loss ([4]; 3.27 mg/kg/day IP, qd×5): 15.7% | mice remaining on Day 90 ([4]; 3.27 mg/kg/day IP, qd×5): one | TGI (T/C) [5, 20]: 50.1% | TGD ([5]; 2.72 mg/kg/day IP, qod×3 weekly for 2 cycles, vs untreated control): 16 days | ILS [5, 21]: 1.7 fold | TGD (T-C) [5, 21]: 31 days | TGI (T/C) [5, 21]: 18.9% | tolerability ([5]; dose levels tested (1.36, 2.72, 4.08 mg/kg/day IP, qod×3 weekly for 2 cycles)): well tolerated | ILS [6, 20]: 2.0 fold | TGD (T-C) [6, 20]: 24 days | TGI (T/C) [6, 20]: 35.1% | body weight loss [6, 22]: < 20% | toxic deaths [6, 22]: no toxic deaths | ILS [7, 23]: 1.6 fold | TGD (T-C) [7, 23]: 18 days | TGI (T/C) [7, 23]: 45.0% | ILS [7, 24]: > 2.2 fold | TGD [7, 24]: > 34 days | mice survivors at conclusion of the study ([7]; 2.72 mg/kg/day IV, qod×3 weekly for 2 cycles, Day 62): 50% | weight loss ([7]; 5.44 mg/kg/day IV, qod×3 weekly for 2 cycles): > 30% | toxic deaths ([7]; 5.44 mg/kg/day IV, qod×3 weekly for 2 cycles, groups of 8): ⅝ | TGI (T/C) ([2]; 2.59 mg/kg/day IP, qd×5): 30.5% | toxic deaths [2, 20]: no toxic deaths | animals not yet reached the study endpoint of 2000 mm^3 [2, 25]: 3 of 8 | weight loss recovered at study termination [2, 25]: approximately 12% | mean tumor volume of the animals not at endpoint [2, 25]: 1583 mm^3 | maximum weight loss ([2]; 2.72 mg/kg/day IP, qod×3 weekly for 2 cycles, on Day 22): 22.3% | TGI (T/C) ([2]; 3.27 mg/kg/day IP, qd×5): 33.5% | animals not yet reached the study endpoint of 2000 mm^3 ([2]; 3.27 mg/kg/day IP, qd×5): 3 of 8 | mean tumor volume of the animals not at endpoint ([2]; 3.27 mg/kg/day IP, qd×5): 1722 mm^3

CNCCn1c(=O)c2cc(O)c(OC)cc2c2cnc3cc4c(cc3c21)OCO4 [Compound 5]
IC50 ([8]; read-out: IC50 concentrations): 0.5 to 0.65 nM | IC90 ([8]; read-out: IC90 concentrations): 1.8 to 2 nM | Increase in Life Span (ILS) ([9]; 4 mg/kg/day IV): 1.8x | Tumor Growth Delay T-C ([9]; 4 mg/kg/day IV): 25 days | Tumor Growth Inhibition T/C (tumor volume) ([9]; 4 mg/kg/day IV): 27.3% | Increase in Life Span (ILS) ([9]; 6 mg/kg/day IV): 1.9x | Tumor Growth Delay T-C ([9]; 6 mg/kg/day IV): 28 days | Tumor Growth Inhibition T/C (tumor volume) ([9]; 6 mg/kg/day IV): 23.4% | Increase in Life Span (ILS) ([9]; 8 mg/kg/day IV): 2.0x | Tumor Growth Delay T-C ([9]; 8 mg/kg/day IV): 32 days | Tumor Growth Inhibition T/C (tumor volume) ([9]; 8 mg/kg/day IV): 27.2%

CN(C)/N=N/c1[nH]cnc1C(N)=O [Dacarbazine, reference compound]
Increase in Life Span (ILS) [10]: 1.0x | Tumor Growth Delay T-C [10]: 0 days | Tumor Growth Inhibition T/C (tumor volume) [10]: 88.5% | Increase in Life Span (ILS) [11]: 2.0x | Tumor Growth Delay T-C [11]: 28 days and 14 days | Tumor Growth Inhibition T/C (tumor volume) [11]: 80.6%

CC(=O)O[C@@]12CO[C@@H]1C[C@H](O)[C@@]1(C)C(=O)[C@H](O)C3=C(C)[C@@H](OC(=O)[C@H](O)[C@@H](NC(=O)OC(C)(C)C)c4ccccc4)C[C@@](O)([C@@H](OC(=O)c4ccccc4)[C@H]21)C3(C)C [Docetaxel, reference compound]
Increase in Life Span (ILS) ([1]; 12 mg/kg/day IV): 1.4x | Tumor Growth Delay T-C ([1]; 12 mg/kg/day IV): 11 days | Tumor Growth Inhibition T/C (tumor volume) ([1]; 12 mg/kg/day IV): 49.8% | Increase in Life Span (ILS) ([12]; 16 mg/kg/day IV): 2.1x | Tumor Growth Delay T-C ([12]; 16 mg/kg/day IV): 39 days | Tumor Growth Inhibition T/C (tumor volume) ([12]; 16 mg/kg/day IV): 8.7% | Increase in Life Span (ILS) ([12]; 20 mg/kg/day IV): 2.1x | Tumor Growth Delay T-C ([12]; 20 mg/kg/day IV): 39 days | Tumor Growth Inhibition T/C (tumor volume) ([12]; 20 mg/kg/day IV): 6.0% | Increase in Life Span (ILS) ([13]; 16 mg/kg/day IV): 1.4x | Tumor Growth Delay T-C ([13]; 16 mg/kg/day IV): 11 days | Tumor Growth Inhibition T/C (tumor volume) ([13]; 16 mg/kg/day IV): 35.2% | Increase in Life Span (ILS) ([13]; 20 mg/kg/day IV): 1.6x | Tumor Growth Delay T-C ([13]; 20 mg/kg/day IV): 17 days | Tumor Growth Inhibition T/C (tumor volume) ([13]; 20 mg/kg/day IV): 20.7% | Increase in Life Span (ILS) ([14]; 16 mg/kg/day IV): >2.3x | Tumor Growth Delay T-C ([14]; 16 mg/kg/day IV): >47 days | Tumor Growth Inhibition T/C (tumor volume) ([14]; 16 mg/kg/day IV): 4.8% | Increase in Life Span (ILS) ([14]; 20 mg/kg/day IV): >2.3x | Tumor Growth Delay T-C ([14]; 20 mg/kg/day IV): >47 days | Tumor Growth Inhibition T/C (tumor volume) ([14]; 20 mg/kg/day IV): 4.0% | TGD (T-C) ([6]; 20 mg/kg/day IV, qod × 3): 21 days | TGI (T/C) ([6]; 20 mg/kg/day IV, qod × 3): 22.7% | time to recover the weight loss ([6]; 20 mg/kg/day IV, qod × 3): ≤ 13 days | toxic deaths ([6]; 20 mg/kg/day IV, qod × 3): no toxic deaths | maximum weight loss ([6]; 20 mg/kg/day IV, qod×3, on Day 25): 26.4%

CCc1c2c(nc3ccc(OC(=O)N4CCC(N5CCCCC5)CC4)cc13)-c1cc3c(c(=O)n1C2)COC(=O)[C@]3(O)CC [Irinotecan, reference compound]
ILS ([3]; 60 mg/kg/day IP, q4d×3): 1.7 fold | TGD (T-C) ([3]; 60 mg/kg/day IP, q4d×3): 14 days | ILS [3, 26]: 2.5 fold | TGD (T-C) [3, 26]: 29 days | TGI (T/C) [3, 26]: 19.0% | Tumor Growth Delay T-C ([15]; q4d×3): 5 days | Increase in Life Span (ILS) ([15]; q4d × 3, listed as CPT-11): 1.1x | Increase in Life Span (ILS) [16]: 1.7x | Tumor Growth Delay T-C [16]: 28 days | Increase in Life Span (ILS) [17]: 1.4x | Tumor Growth Delay T-C [17]: 17 days | ILS [4, 26]: > 2.0 fold | TGD (T-C) [4, 26]: 38 days | TGI (T/C) [4, 26]: 10% | body weight loss [4, 26]: 20% | TGD ([5]; 60 mg/kg/day IV, q4d×3): no TGD was observed | TGI (T/C) ([5]; 60 mg/kg/day IV, q4d×3): 52.7% | tolerability ([5]; 60 mg/kg/day IV, q4d×3): well tolerated | ILS [18]: > 1.5 fold | TGD (T-C) [18]: > 18 days | body weight loss [18]: < 10% | animals remaining at study termination ([18]; Day 53): 8 of 9 | ILS ([7]; 60 mg/kg/day IV, q4d×3): 1.5 fold | TGD (T-C) ([7]; 60 mg/kg/day IV, q4d×3): 14 days | tolerability ([7]; 60 mg/kg/day IV, q4d×3): tolerated well
